Drawing on article PMC6747070, “β-Glucose-1,6-Bisphosphate Stabilizes Pathological Phophomannomutase2 Mutants In Vitro and Represents a Lead Compound to Develop Pharmacological Chaperones for the Most Common Disorder of Glycosylation, PMM2-CDG” (International Journal of Molecular Sciences, 2019), this text covers dTm and inhibition for two compounds.

The target of assay [1] is T1, PMM2 (wt-PMM2) (Homo sapiens, UniProt O15305).
T1 construct: recombinant, vector Pet22b+, E. coli BL21(DE3), no tag mentioned; homodimer; DEAE-Sepharose and Superdex 75 purification
T1 sequence (O15305 2-246): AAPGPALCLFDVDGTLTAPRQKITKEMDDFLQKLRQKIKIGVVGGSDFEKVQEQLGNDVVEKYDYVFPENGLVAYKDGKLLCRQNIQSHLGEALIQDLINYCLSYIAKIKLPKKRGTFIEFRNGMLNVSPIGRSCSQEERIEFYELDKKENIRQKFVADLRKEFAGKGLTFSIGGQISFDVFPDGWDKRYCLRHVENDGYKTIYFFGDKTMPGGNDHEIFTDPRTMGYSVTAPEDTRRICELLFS
The experiment in a line: thermal shift assay (Sypro Orange). It counts as binding. To be noted: 0.5 mM ligand, without vanadate; Hepes 20 mM pH 7.5, Mg2+, NaCl, DTT.

The target in assay [2] is T1, PMM2 (wt-PMM2). The assay can be described thus: […]-NMR phosphomannomutase assay. It counts as biochemical. To be noted: inhibitor; βG16P 5 or 50 μM; 1 mM αM1P, activator αG16P 5 μM; Hepes pH 7.3, MgCl2 1 mM, 32 °C.

Consider `O=P(O)(O)O[C@H]1O[C@H](CO)[C@@H](O)[C@H](O)[C@H]1O` [αG1P], for which the dTm entry at PMM2 (wt-PMM2) [1] was “αG1P is a stabilizer of PMM2 too”.

Take `O=P(O)(O)OC[C@H]1O[C@@H](OP(=O)(O)O)[C@H](O)[C@@H](O)[C@@H]1O` [βG16P]: the inhibition result against PMM2 (wt-PMM2) [2] is “βG16P is not an activator and show that it inhibits PMM2”.
